Test: Long-term stability in spiked pooled human plasma

Row | SMILES | Long-term stability, 1 month, -80°C Accuracy [%] (validation standard 2xLLOV) | Long-term stability, 2 month, -20°C Accuracy [%] (validation standard 2xLLOV) | Long-term stability, 2 month, -80°C Accuracy [%] (validation standard 2xLLOV) | Long-term stability, 3 month, -80°C Accuracy [%] (validation standard 2xLLOV) | Long-term stability, 6 weeks, 4°C, without daylight Accuracy [%] (validation standard 2xLLOV) | Long-term stability, 1 month, -20°C Accuracy [%] (validation standard LLOV) | Long-term stability, 1 month, -80°C Accuracy [%] (validation standard LLOV) | Long-term stability, 2 month, -20°C Accuracy [%] (validation standard LLOV) | Long-term stability, 2 month, -80°C Accuracy [%] (validation standard LLOV) | Long-term stability, 3 month, -80°C Accuracy [%] (validation standard LLOV) | Long-term stability, 6 weeks, 4°C, without daylight Accuracy [%] (validation standard LLOV) | Long-term stability, 1 month, -80°C Accuracy [%] (validation standard MOV) | Long-term stability, 2 month, -20°C Accuracy [%] (validation standard MOV) | Long-term stability, 2 month, -80°C Accuracy [%] (validation standard MOV) | Long-term stability, 3 month, -80°C Accuracy [%] (validation standard MOV) | Long-term stability, 1 month, -20°C Accuracy [%] (validation standard ULOV) | Long-term stability, 1 month, -80°C Accuracy [%] (validation standard ULOV) | Long-term stability, 2 month, -20°C Accuracy [%] (validation standard ULOV) | Long-term stability, 2 month, -80°C Accuracy [%] (validation standard ULOV) | Long-term stability, 3 month, -80°C Accuracy [%] (validation standard ULOV) | also measured
1 | CN(C)C(=O)c1cc2cnc(Nc3ccc(N4CCNCC4)cn3)nc2n1C1CCCC1 [Ribociclib] | 98.5 | 109.0 | 112.4 | 106.4 | 96.4 | 88.0 | 83.5 | 92.7 | 94.7 | 90.7 | 76.6 | 101.3 | 108.6 | 108.1 | 104.3 | 91.9 | 90.7 | 98.7 | 98.8 | 92.7 | Long-term stability, 6 weeks, 4°C, without daylight Accuracy [%] (validation standard MOV): 107.4%; Long-term stability, 6 weeks, 4°C, without daylight Accuracy [%] (validation standard ULOV): 96.3%
2 | N#CC[C@H](C1CCCC1)n1cc(-c2ncnc3[nH]ccc23)cn1 [Ruxolitinib] | 93.0 | 97.7 | 100.0 | 99.4 | 93.8 | 95.6 | 94.6 | 98.6 | 99.8 | 96.5 | 97.9 | 94.2 | 97.7 | 96.8 | 94.6 | 95.3 | 91.6 | 95.3 | 95.8 | 94.5 | Long-term stability, 1 month, -20°C Accuracy [%] (validation standard 2xLLOV): 101.5%; Long-term stability, 3 month, -20°C Accuracy [%] (validation standard 2xLLOV): 97.5%; Long-term stability, 3 month, -20°C Accuracy [%] (validation standard LLOV): 101.8%; Long-term stability, 1 month, -20°C Accuracy [%] (validation standard MOV): 95.8%; Long-term stability, 3 month, -20°C Accuracy [%] (validation standard MOV): 97.0%; Long-term stability, 6 weeks, 4°C, without daylight Accuracy [%] (validation standard MOV): 97.6%; Long-term stability, 3 month, -20°C Accuracy [%] (validation standard ULOV): 95.4%; Long-term stability, 6 weeks, 4°C, without daylight Accuracy [%] (validation standard ULOV): 96.6%
3 | Cc1c(C(=O)Nc2ccc(N3C[C@@H](C)O[C@@H](C)C3)nc2)cccc1-c1ccc(OC(F)(F)F)cc1 [Sonidegib] | 108.9 | 111.0 | 107.0 | 104.6 | 91.2 | 109.9 | 108.6 | 105.8 | 104.4 | 109.9 | 89.3 | 108.0 | 114.5 | 119.3 | 99.2 | 106.5 | 105.4 | 122.3 | 122.3 | 100.0 | Long-term stability, 1 month, -20°C Accuracy [%] (validation standard 2xLLOV): 106.2%; Long-term stability, 3 month, -20°C Accuracy [%] (validation standard 2xLLOV): 96.1%; Long-term stability, 3 month, -20°C Accuracy [%] (validation standard LLOV): 103.1%; Long-term stability, 1 month, -20°C Accuracy [%] (validation standard MOV): 104.9%; Long-term stability, 3 month, -20°C Accuracy [%] (validation standard MOV): 95.1%; Long-term stability, 6 weeks, 4°C, without daylight Accuracy [%] (validation standard MOV): 106.1%; Long-term stability, 3 month, -20°C Accuracy [%] (validation standard ULOV): 89.3%; Long-term stability, 6 weeks, 4°C, without daylight Accuracy [%] (validation standard ULOV): 100.7%
4 | CNC(=O)c1cc(Oc2ccc(NC(=O)Nc3ccc(Cl)c(C(F)(F)F)c3)cc2)ccn1 [Sorafenib] | 110.1 | 109.9 | 106.2 | 108.7 | 74.5 | 106.1 | 102.7 | 109.0 | 106.5 | 111.4 | 71.1 | 108.3 | 112.2 | 118.4 | 100.4 | 104.5 | 103.5 | 116.0 | 114.3 | 102.3 | Long-term stability, 1 month, -20°C Accuracy [%] (validation standard 2xLLOV): 103.7%; Long-term stability, 3 month, -20°C Accuracy [%] (validation standard 2xLLOV): 94.5%; Long-term stability, 3 month, -20°C Accuracy [%] (validation standard LLOV): 100.5%; Long-term stability, 1 month, -20°C Accuracy [%] (validation standard MOV): 106.1%; Long-term stability, 3 month, -20°C Accuracy [%] (validation standard MOV): 94.0%; Long-term stability, 6 weeks, 4°C, without daylight Accuracy [%] (validation standard MOV): 106.5%; Long-term stability, 3 month, -20°C Accuracy [%] (validation standard ULOV): 90.5%; Long-term stability, 6 weeks, 4°C, without daylight Accuracy [%] (validation standard ULOV): 99.7%
5 | CCN(CC)CCNC(=O)c1c(C)[nH]c(/C=C2\C(=O)Nc3ccc(F)cc32)c1C [Sunitinib] | 108.5 | 108.9 | 108.9 | 131.1 | 85.9 | 132.8 | 122.7 | 114.3 | 112.8 | 135.5 | 96.2 | 107.0 | 106.3 | 102.8 | 120.9 | 119.5 | 109.0 | 109.7 | 108.8 | 118.4 | Long-term stability, 1 month, -20°C Accuracy [%] (validation standard 2xLLOV): 121.2%; Long-term stability, 3 month, -20°C Accuracy [%] (validation standard 2xLLOV): 123.9%; Long-term stability, 3 month, -20°C Accuracy [%] (validation standard LLOV): 130.7%; Long-term stability, 1 month, -20°C Accuracy [%] (validation standard MOV): 118.5%; Long-term stability, 3 month, -20°C Accuracy [%] (validation standard MOV): 123.6%; Long-term stability, 6 weeks, 4°C, without daylight Accuracy [%] (validation standard MOV): 109.9%; Long-term stability, 3 month, -20°C Accuracy [%] (validation standard ULOV): 122.5%; Long-term stability, 6 weeks, 4°C, without daylight Accuracy [%] (validation standard ULOV): 105.4%
6 | O=C1CCC(N2C(=O)c3ccccc3C2=O)C(=O)N1 (stereo not shown) [Thalidomide] | 74.9 | 58.1 | 79.7 | 79.8 |  | 71.4 | 76.7 | 57.5 | 72.7 | 76.7 |  | 73.1 | 57.0 | 77.9 | 75.0 | 68.6 | 66.3 | 42.5 | 79.5 | 78.0 | Long-term stability, 1 month, -20°C Accuracy [%] (validation standard 2xLLOV): 75.6%; Long-term stability, 3 month, -20°C Accuracy [%] (validation standard 2xLLOV): 50.7%; Long-term stability, 3 month, -20°C Accuracy [%] (validation standard LLOV): 43.9%; Long-term stability, 1 month, -20°C Accuracy [%] (validation standard MOV): 66.7%; Long-term stability, 3 month, -20°C Accuracy [%] (validation standard MOV): 50.8%; Long-term stability, 3 month, -20°C Accuracy [%] (validation standard ULOV): 33.5%
7 | COc1cc2nccc(Oc3ccc(NC(=O)Nc4cc(C)on4)c(Cl)c3)c2cc1OC [Tivozanib] | 95.7 | 98.9 | 101.4 | 95.2 | 93.9 | 99.8 | 96.0 | 95.8 | 100.7 | 97.1 | 86.9 | 95.0 | 102.0 | 101.3 | 98.0 | 97.0 | 92.8 | 100.9 | 100.3 | 96.2 | Long-term stability, 1 month, -20°C Accuracy [%] (validation standard 2xLLOV): 101.4%; Long-term stability, 3 month, -20°C Accuracy [%] (validation standard 2xLLOV): 96.9%; Long-term stability, 3 month, -20°C Accuracy [%] (validation standard LLOV): 92.5%; Long-term stability, 1 month, -20°C Accuracy [%] (validation standard MOV): 97.4%; Long-term stability, 3 month, -20°C Accuracy [%] (validation standard MOV): 100.0%; Long-term stability, 6 weeks, 4°C, without daylight Accuracy [%] (validation standard MOV): 107.6%; Long-term stability, 3 month, -20°C Accuracy [%] (validation standard ULOV): 96.3%; Long-term stability, 6 weeks, 4°C, without daylight Accuracy [%] (validation standard ULOV): 100.6%
8 | CC(=O)Nc1cccc(-n2c(=O)n(C3CC3)c(=O)c3c(Nc4ccc(I)cc4F)n(C)c(=O)c(C)c32)c1 [Trametinib] | 110.9 | 123.9 | 104.2 | 103.8 | 97.4 | 111.6 | 101.9 | 111.6 | 103.4 | 104.8 | 101.5 | 107.1 | 116.1 | 117.6 | 102.5 | 103.2 | 99.6 | 119.8 | 115.3 | 106.9 | Long-term stability, 1 month, -20°C Accuracy [%] (validation standard 2xLLOV): 105.1%; Long-term stability, 3 month, -20°C Accuracy [%] (validation standard 2xLLOV): 105.5%; Long-term stability, 3 month, -20°C Accuracy [%] (validation standard LLOV): 96.6%; Long-term stability, 1 month, -20°C Accuracy [%] (validation standard MOV): 105.2%; Long-term stability, 3 month, -20°C Accuracy [%] (validation standard MOV): 102.9%; Long-term stability, 6 weeks, 4°C, without daylight Accuracy [%] (validation standard MOV): 103.9%; Long-term stability, 3 month, -20°C Accuracy [%] (validation standard ULOV): 94.5%; Long-term stability, 6 weeks, 4°C, without daylight Accuracy [%] (validation standard ULOV): 94.7%
